The values that follow come from paper PMC4342272 (Journal of the American Chemical Society, 2015).

The target of the assay is c-Abl (Homo sapiens, UniProt P00519). The experiment in a line: Dose-response inhibition assay, AbAStide time-resolved Tb3+ luminescence. Format: biochemical.

The term IC50 denotes the point on the concentration scale where inhibition reaches its midpoint. A low value points to higher potency.

Chain of c-Abl (P00519 whole entry): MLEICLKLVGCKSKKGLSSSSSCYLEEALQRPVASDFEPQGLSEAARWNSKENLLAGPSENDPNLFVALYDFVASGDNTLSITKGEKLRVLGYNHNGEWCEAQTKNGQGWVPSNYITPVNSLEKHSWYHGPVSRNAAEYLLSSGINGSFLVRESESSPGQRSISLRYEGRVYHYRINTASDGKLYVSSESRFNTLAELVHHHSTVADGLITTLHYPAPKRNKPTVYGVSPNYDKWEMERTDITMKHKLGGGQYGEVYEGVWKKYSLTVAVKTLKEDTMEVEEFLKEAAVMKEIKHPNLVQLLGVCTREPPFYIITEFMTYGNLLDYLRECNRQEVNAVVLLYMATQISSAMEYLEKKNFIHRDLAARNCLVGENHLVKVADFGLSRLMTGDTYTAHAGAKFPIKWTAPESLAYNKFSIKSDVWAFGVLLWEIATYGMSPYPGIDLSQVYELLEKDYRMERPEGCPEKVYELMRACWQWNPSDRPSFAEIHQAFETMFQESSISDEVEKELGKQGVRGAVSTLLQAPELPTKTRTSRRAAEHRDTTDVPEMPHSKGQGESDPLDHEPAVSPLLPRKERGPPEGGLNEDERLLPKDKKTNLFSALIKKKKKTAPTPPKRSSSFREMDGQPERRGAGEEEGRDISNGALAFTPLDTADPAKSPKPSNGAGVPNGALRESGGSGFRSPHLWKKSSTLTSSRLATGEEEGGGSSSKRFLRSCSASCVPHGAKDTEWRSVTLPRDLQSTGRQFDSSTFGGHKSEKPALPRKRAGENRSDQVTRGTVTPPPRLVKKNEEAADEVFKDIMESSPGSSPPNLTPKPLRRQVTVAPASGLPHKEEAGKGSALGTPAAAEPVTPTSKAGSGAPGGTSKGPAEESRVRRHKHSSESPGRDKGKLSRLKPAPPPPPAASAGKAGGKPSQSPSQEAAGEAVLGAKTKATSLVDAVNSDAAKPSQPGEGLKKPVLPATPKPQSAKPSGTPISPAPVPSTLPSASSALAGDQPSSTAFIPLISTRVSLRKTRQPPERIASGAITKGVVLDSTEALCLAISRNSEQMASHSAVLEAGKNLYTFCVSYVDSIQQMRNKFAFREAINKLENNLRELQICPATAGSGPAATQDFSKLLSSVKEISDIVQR

`c1ccc(-c2n[nH]cc2-c2ccnc(-c3ccc(OCCn4ccnc4)cc3)c2)nc1` [GW711782X]: the half-maximal inhibitory concentration (IC50) came to 1.91 nM.

With `COC(=O)Nc1nc2ccc(Oc3ccc(NC(=O)Nc4cc(C(F)(F)F)ccc4F)cc3)cc2s1` [GW693917A], the IC50 turned out to be 0.52 nM.

`COC(=O)Nc1nc2ccc(Sc3ccc(NC(=O)Nc4cc(C(F)(F)F)ccc4F)cc3)cc2[nH]1` [GW607049C]: under “AbAStide biosensor, negative compounds from HTS”, the “inhibition of Abl in dose-response kinase assay” value is listed as “no inhibition”.

Regarding `COc1cc(C=NNc2ncnc3c2cnn3-c2ccccc2)ccc1O` [GW513184X], the IC50 worked out at 0.35 nM.
